Test results as given in US20240368230A1, “CELL-PENETRATING PEPTIDES COMPRISING MULTIPLE 5-MER ALPHA-HELIX FRAGMENTS AND USES THEREOF” (ArtProBio Co., Ltd., priority 2023, published 2024).
One block for each molecule: values may come before it. Where a SMILES comes first, the peptide text is derived from it. Where no end group is shown, it is not given here. [ ]: non-standard residue; d: D form. Aib = CC(C)(N)C(=O)O

How the values were obtained:
[1] = CD spectroscopy of cell-penetrating peptides (helicity); conditions: for helicity ([θ]222/[θ]208): CD spectra; for secondary structure / helix stabilization by CD: 10 mM potassium phosphate, pH 7.4, 20° C.
Description: The concentration of peptides/proteins was 5-20 μM in general. Spectra were obtained using a Jasco J-1500 CD spectrometer (JASCO, Japan) or a Chirascan CD spectrometer (Applied Photophysics, UK). Scanning was carried out using a cuvette with a path length of 1 mm. MRE (mean residue ellipticity) was calculated per amino acid residue.
The cell-penetrating peptides (CPP1 TO 13 and CPP11d) were dissolved respectively in 10 mM potassium phosphate. The analysis was performed under the condition of pH 7.4 and 20° C.

BALB/c nude mice = assay: In-vivo fluorescence imaging (IVIS) of living mice, targeting; conditions: FAM-labeled, IV 5 mg/kg, 4 hours; for in-vivo targeting site: 200 μL; for bioaccumulation / targeting activity in the body: comparison with existing CPPs
Description: All animal experimental procedures including sample administration and euthanasia were performed in accordance with the strict guidelines of the Yonsei University Health System Institutional Animal Care and Use Committee. Female 7-week BALB/c nude mice were purchased from Orient Bio Company (Korea). Fluorescence-labeled peptide (sample) (10 mg/kg) was injected via the lateral tail vein of the mice. Fluorescence images were acquired at different times (0, 4, 8 and 12 hours) using an in-vivo imaging system (IVIS; PerkinElmer, USA) and the images were analyzed with the Living Image software (PerkinElmer).
Female 7-week-old BALB/c nude mice were injected IV (intravenously) with the cell-penetrating peptide prepared in Example 10 (CPP10) at 10 mg/kg or 1 mg/kg via the lateral tail vein and imaged using IVIS (in-vivo imaging system) (PerkinElmer, USA) 4 hours later. The images were analyzed with the Living Image software (PerkinElmer). The mice were analyzed from the top, bottom (belly) and side positions (FIG. 44A). Then, after administering the same volume of the cell-penetrating peptide prepared in Example 10 (CPP10) at 10 mg/kg via IV (intravenous) or IP (intraperitoneal) injection, the mice were imaged 4 hours later (FIG. 44B).
Next, female 7-week-old BALB/c nude mice were injected IV (intravenously) with the cell-penetrating peptide of Example 10 (CPP10), the cell-penetrating peptide of Example 11 (CPP11) or the cell-penetrating peptide of Example 14 (CPP11d) at 10 mg/kg via the lateral tail vein, and they were imaged 30 minutes and 6 hours later using IVIS (in-vivo imaging system) (PerkinElmer, USA). The images were analyzed with the Living Image software (PerkinElmer) (FIG. 44C). In FIGS. 44A and 44B, the cell-penetrating peptides were labeled with TAMRA (5 (6)-carboxytetramethylrhodamine). In FIG. 44C, the cell-penetrating peptides were labeled with FAM.
The images were analyzed with the Living Image software (PerkinElmer) (FIGS. 50 and 51).
The cell-penetrating peptide prepared in Example 11 (CPP11) was also administered at the same concentration and then analyzed by IVIS 1 hour later (FIG. 51). The cell-penetrating peptide was used after labeling with FAM.
4 hours later, the mice were imaged using IVIS (in-vivo imaging system) (PerkinElmer, USA) and the images were analyzed with the Living Image software (PerkinElmer) (FIG. 53).
The cell-penetrating peptide prepared in Example 11 (CPP11) was also administered at the same concentration and then analyzed by IVIS 1 hour later (FIG. 53). The cell-penetrating peptide was used after labeling with FAM.
Female 7-week-old BALB/c nude mice were injected IV (intravenously) with 200 μL of the cell-penetrating peptide of Example 11 (CPP11) or the existing cell-penetrating peptides (Rev ARM, Tat, penetratin and R8) at 5 mg/kg via the lateral tail vein. 4 hours later, the mice were imaged using IVIS (in-vivo imaging system) (PerkinElmer, USA) and the images were analyzed with the Living Image software (PerkinElmer) (FIGS. 54 and 55). The cell-penetrating peptides were used after labeling with FAM.

- helicity ([θ]222/[θ]208) [1]: ≥ 0.7
- helicity ([θ]222/[θ]208) ([1]; listed as Example 20): 0.706
- in-vivo targeting site (BALB/c nude mice): target the ear
Molecule: C[C@H](NC(=O)[C@H](CCC(N)=O)NC(=O)C(C)(C)NC(=O)CNC(=O)C(C)(C)NC(=O)[C@H](CC(N)=O)NC(=O)[C@H](CCCNC(=N)N)NC(=O)[C@H](CCCNC(=N)N)NC(=O)[C@H](C)NC(=O)[C@H](CCC(N)=O)NC(=O)C(C)(C)NC(=O)[C@H](C)NC(=O)C(C)(C)NC(=O)[C@H](CC(N)=O)NC(=O)[C@H](CCCNC(=N)N)NC(=O)[C@H](CCCNC(=N)N)NC(=O)[C@H](C)NC(=O)[C@H](CCC(N)=O)NC(=O)C(C)(C)NC(=O)[C@H](C)NC(=O)C(C)(C)NC(=O)[C@H](CC(N)=O)NC(=O)[C@H](CCCNC(=N)N)NC(=O)[C@H](CCCNC(=N)N)NC(=O)[C@H](C)NC(=O)[C@H](CCC(N)=O)NC(=O)C(C)(C)NC(=O)[C@H](C)NC(=O)C(C)(C)N)C(=O)N[C@@H](CCCNC(=N)N)C(=O)N[C@@H](CCCNC(=N)N)C(=O)N[C@@H](CC(N)=O)C(=O)NC(C)(C)C(=O)N[C@@H](C)C(=O)NC(C)(C)C(N)=O [CPP19] (HELM PEPTIDE1{[Aib].A.[Aib].Q.A.R.R.N.[Aib].A.[Aib].Q.A.R.R.N.[Aib].A.[Aib].Q.A.R.R.N.[Aib].G.[Aib].Q.A.R.R.N.[Aib].A.[Aib].[am]}$$$$V2.0; N-terminus assumed)

- helicity ([θ]222/[θ]208) ([1]; listed as Example 21): 0.565
- in-vivo targeting site (BALB/c nude mice): target the ear
Molecule: C[C@H](NC(=O)[C@H](CCC(N)=O)NC(=O)C(C)(C)NC(=O)CNC(=O)C(C)(C)NC(=O)[C@H](CC(N)=O)NC(=O)[C@H](CCCNC(=N)N)NC(=O)[C@H](CCCNC(=N)N)NC(=O)[C@H](C)NC(=O)[C@H](CCC(N)=O)NC(=O)C(C)(C)NC(=O)[C@H](C)NC(=O)C(C)(C)NC(=O)[C@H](CC(N)=O)NC(=O)[C@H](CCCNC(=N)N)NC(=O)[C@H](CCCNC(=N)N)NC(=O)[C@H](C)NC(=O)[C@H](CCC(N)=O)NC(=O)C(C)(C)NC(=O)[C@H](C)NC(=O)C(C)(C)N)C(=O)N[C@@H](CCCNC(=N)N)C(=O)N[C@@H](CCCNC(=N)N)C(=O)N[C@@H](CC(N)=O)C(=O)NC(C)(C)C(=O)NCC(=O)NC(C)(C)C(=O)N[C@@H](CCC(N)=O)C(=O)N[C@@H](C)C(=O)N[C@@H](CCCNC(=N)N)C(=O)N[C@@H](CCCNC(=N)N)C(=O)N[C@@H](CC(N)=O)C(=O)NC(C)(C)C(=O)N[C@@H](C)C(=O)NC(C)(C)C(N)=O [CPP20] (HELM PEPTIDE1{[Aib].A.[Aib].Q.A.R.R.N.[Aib].A.[Aib].Q.A.R.R.N.[Aib].G.[Aib].Q.A.R.R.N.[Aib].G.[Aib].Q.A.R.R.N.[Aib].A.[Aib].[am]}$$$$V2.0; N-terminus assumed)
- accumulation efficiency in the ear (BALB/c nude mice; among CPP19 to 21): much superior accumulation efficiency in the ear

- helicity ([θ]222/[θ]208) ([1]; listed as Example 22): 0.500
- in-vivo targeting site (BALB/c nude mice): target the ear
Molecule: C[C@H](NC(=O)[C@H](CCC(N)=O)NC(=O)C(C)(C)NC(=O)CNC(=O)C(C)(C)NC(=O)[C@H](CC(N)=O)NC(=O)[C@H](CCCNC(=N)N)NC(=O)[C@H](CCCNC(=N)N)NC(=O)[C@H](C)NC(=O)[C@H](CCC(N)=O)NC(=O)C(C)(C)NC(=O)CNC(=O)C(C)(C)NC(=O)[C@H](CC(N)=O)NC(=O)[C@H](CCCNC(=N)N)NC(=O)[C@H](CCCNC(=N)N)NC(=O)[C@H](C)NC(=O)[C@H](CCC(N)=O)NC(=O)C(C)(C)NC(=O)[C@H](C)NC(=O)C(C)(C)N)C(=O)N[C@@H](CCCNC(=N)N)C(=O)N[C@@H](CCCNC(=N)N)C(=O)N[C@@H](CC(N)=O)C(=O)NC(C)(C)C(=O)NCC(=O)NC(C)(C)C(=O)N[C@@H](CCC(N)=O)C(=O)N[C@@H](C)C(=O)N[C@@H](CCCNC(=N)N)C(=O)N[C@@H](CCCNC(=N)N)C(=O)N[C@@H](CC(N)=O)C(=O)NC(C)(C)C(=O)N[C@@H](C)C(=O)NC(C)(C)C(N)=O [CPP21] (HELM PEPTIDE1{[Aib].A.[Aib].Q.A.R.R.N.[Aib].G.[Aib].Q.A.R.R.N.[Aib].G.[Aib].Q.A.R.R.N.[Aib].G.[Aib].Q.A.R.R.N.[Aib].A.[Aib].[am]}$$$$V2.0; N-terminus assumed)

Molecule: N=C(N)NCCC[C@H](NC(=O)[C@H](CCCNC(=N)N)NC(=O)[C@H](CCCNC(=N)N)NC(=O)[C@H](CCC(N)=O)NC(=O)[C@H](CCCNC(=N)N)NC(=O)[C@H](CCCNC(=N)N)NC(=O)[C@H](CCCCN)NC(=O)[C@H](CCCCN)NC(=O)[C@H](CCCNC(=N)N)NC(=O)CNC(=O)[C@@H](N)Cc1ccc(O)cc1)C(N)=O [Tat, Tyr-Gly-Arg-Lys-Lys-Arg-Arg-Gln-Arg-Arg-Arg, reference compound]
- bioaccumulation (BALB/c nude mice): did not show significant bioaccumulation
- targeting activity in the body (BALB/c nude mice): did not show targeting activity for specific sites in the body

Molecule: AUAUARQARRNRQARRNRQARRNAUAUA (A[Aib]A[Aib]ARQARRNRQARRNRQARRNA[Aib]A[Aib]A; not fully specified (C-terminus)) [CPP4]
- secondary structure / helix stabilization by CD [1]: helical structure was somewhat stabilized

Molecule: QARRNQARRNQARRNQARRN [CPP6]
- secondary structure / helix stabilization by CD [1]: mostly in random coil state

Molecule: QARRNQARRNQARRNQARRNQARRN [CPP7]
- secondary structure / helix stabilization by CD [1]: mostly in random coil state

Molecule: RRRRRRRR [R8, reference compound]
- bioaccumulation (BALB/c nude mice): did not show significant bioaccumulation
- targeting activity in the body (BALB/c nude mice): did not show targeting activity for specific sites in the body

Molecule: TRQARRNRRRRWRERQR [Rev ARM, reference compound]
- bioaccumulation (BALB/c nude mice): did not show significant bioaccumulation
- targeting activity in the body (BALB/c nude mice): did not show targeting activity for specific sites in the body

Molecule: UAUNARRQUAUNARRQUAUNARRQUAUNARRQUAU ([Aib]A[Aib]NARRQ[Aib]A[Aib]NARRQ[Aib]A[Aib]NARRQ[Aib]A[Aib]NARRQ[Aib]A[Aib]-NH2) [CPP18]
- helicity ([θ]222/[θ]208) [1]: 0.72

Molecule: UAUNRARQUAUNRARQUAUNRARQUAUNRARQUAU ([Aib]A[Aib]NRARQ[Aib]A[Aib]NRARQ[Aib]A[Aib]NRARQ[Aib]A[Aib]NRARQ[Aib]A[Aib]-NH2) [CPP17]
- helicity ([θ]222/[θ]208) [1]: 0.78

Molecule: UAUNRRAQUAUNRRAQUAUNRRAQUAUNRRAQUAU ([Aib]A[Aib]NRRAQ[Aib]A[Aib]NRRAQ[Aib]A[Aib]NRRAQ[Aib]A[Aib]NRRAQ[Aib]A[Aib]-NH2) [CPP16]
- helicity ([θ]222/[θ]208) [1]: 0.66

Molecule: UAUQARRNUAUQARRNUAUQARRNUAUQARRNUAUQARRNUAU ([Aib]A[Aib]QARRN[Aib]A[Aib]QARRN[Aib]A[Aib]QARRN[Aib]A[Aib]QARRN[Aib]A[Aib]QARRN[Aib]A[Aib]; not fully specified) [CPP13]
- secondary structure / helix stabilization by CD [1]: not further increased

Molecule: UAUQRARNUAUQRARNUAUQRARNUAUQRARNUAU ([Aib]A[Aib]QRARN[Aib]A[Aib]QRARN[Aib]A[Aib]QRARN[Aib]A[Aib]QRARN[Aib]A[Aib]-NH2; not fully specified) [CPP14]
- helicity ([θ]222/[θ]208) [1]: 0.81

Molecule: UAUQRRANUAUQRRANUAUQRRANUAUQRRANUAU ([Aib]A[Aib]QRRAN[Aib]A[Aib]QRRAN[Aib]A[Aib]QRRAN[Aib]A[Aib]QRRAN[Aib]A[Aib]-NH2; not fully specified) [CPP15]
- helicity ([θ]222/[θ]208) [1]: 0.66

Molecule: UAURQARRNUAURQARRNUAURQARRNUAURQARRNUAU ([Aib]A[Aib]RQARRN[Aib]A[Aib]RQARRN[Aib]A[Aib]RQARRN[Aib]A[Aib]RQARRN[Aib]A[Aib]; not fully specified (C-terminus)) [CPP5]
- secondary structure / helix stabilization by CD [1]: helical structure was somewhat stabilized
